For assay [1], the target named is alpha-1-proteinase inhibitor (API) (Homo sapiens, UniProt P01009). The assay is classed as binding.
The next assay has as its system Polio Virus. The assay is classed as binding, poliovirus.
Assay [2] deals with PPV. The class given is binding, porcine parvovirus.
In a further assay the test system is SV40. The class given is binding, simian virus 40.
For assay [3], the system named is PRV. The class given is binding, pseudorabies virus.
Assay [4] has as its system PPV. The assay is classed as binding, porcine parvovirus. The source holds these as a separate data set.
For assay [5], the system named is HAV. The class given is binding, hepatitis A virus.
Another assay relates to HIV. The assay is classed as binding, human immunodeficiency virus.
The next assay relates to BVDV. The assay is classed as binding, bovine viral diarrhea virus.
In assay [6] the test system is PRV. The assay is classed as binding, pseudorabies virus. Particulars: peptide resin.
Assay [7] relates to HAV. The assay is classed as binding, hepatitis A virus. The source holds these as a separate data set.

Ends that are not written are not given here. amino resin = not defined here; spacer = not defined here

Sequence of alpha-1-proteinase inhibitor (API) (P01009 25-418): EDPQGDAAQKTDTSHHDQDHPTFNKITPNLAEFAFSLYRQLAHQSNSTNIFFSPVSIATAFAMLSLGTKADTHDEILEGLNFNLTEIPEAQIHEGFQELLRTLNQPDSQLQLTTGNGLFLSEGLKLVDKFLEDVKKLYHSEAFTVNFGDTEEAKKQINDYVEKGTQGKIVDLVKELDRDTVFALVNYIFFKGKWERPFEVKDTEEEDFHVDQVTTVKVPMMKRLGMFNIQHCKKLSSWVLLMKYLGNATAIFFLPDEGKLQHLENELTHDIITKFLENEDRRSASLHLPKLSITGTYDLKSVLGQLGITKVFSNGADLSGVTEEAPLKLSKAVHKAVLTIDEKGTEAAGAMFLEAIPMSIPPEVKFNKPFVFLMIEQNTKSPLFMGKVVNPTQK

VLYTNN: Table 2 sample 6: the “binding to API” value in assay [1] is reported as “API-binding”.

For LKRIEY: Table 2 sample 3, the “binding to API” value in [1] is on record as “API-binding”. For the substance FLLIDA: Table 1 sample 8, the “Screen (positive bead, ligand identified for virus)” value with Polio Virus was “Polio”. For the substance “Acetyl-FLLPYK: N-acetylated FLLPYK on resin (Ac-FLLPYK)”, the “logs reduction (clearance) of PPV in column flow-through” value (shortened to “logs reduction (clearance) of PPV”) with PPV [2] is “no clearance”. Turning to NFZQNT: Table 2 sample 7, the “binding to API” value in assay [1] is on record as “API-binding”. As to FLLFQP: Table 1 sample 5, the “Screen (positive bead, ligand identified for virus)” value with SV40 was “SV40”.

With FLLYAK: also Table 4 sample 46, in the assay with PRV [3], the “binds PRV (sequences that bind to all three viruses)” value was “bind”. In the assay with PPV [4], the “binds PPV (sequences that bind to all three viruses)” value is “bind”. Moreover, the “binds HAV (sequences that bind to all three viruses)” value with HAV [5] was “bind”.

For the substance “amino-FLLP: truncated peptide on resin (on resin)”, the “logs reduction (clearance) of PPV” value in the assay with PPV [2] is “no significant clearance”.

As for “FLLPYK: consensus peptide synthesized onto amino resin with a spacer at the carboxy terminal (FLLPYK-{spacer-amino resin}; not fully specified; reading uncertain)”, the “logs reduction (clearance) of PPV” value in the assay on PPV [2] is reported as “five”. Further, the “binds HIV” value with HIV was “binds”. In the assay on BVDV, the “binds BVDV” value is “binds”. Besides, the “binds PRV” value in the assay on PRV [6] is listed as “binds”. The “binds HAV” value with HAV [7] is reported as “binds”.

As to RDYDTD: Table 2 sample 2, in [1], the “binding to API” value is listed as “API-binding”. On the same count and under the same terms, with AQTFHD: Table 2 sample 1 the entry was “API-binding”. Take SDLRRL: Table 2 sample 4: the “binding to API” value in assay [1] is “API-binding”.

With APPRTV: Table 2 sample 5, in [1], the “binding to API” value is reported as “API-binding”. Same read-out and setting: the value for SKNNAA: Table 2 sample 8 was “API-binding”.

Source of the values: patent publication US20020155106A1 (priority 2000, published 2002).
